Assay results: patent EP4703358A1, “BENZO SIX-MEMBERED HETEROCYCLIC GSPT1 PROTEIN DEGRADATION AGENT AND USE THEREOF” (China Pharmaceutical University, priority 2023, dated 2024)

Legend:
GSPT1 protein = target: T1, GSPT1 protein (Homo sapiens, UniProt P15170+Q96SW2); experiment: Degradation of GSPT1 in KG-1 cells (Western blot); assay type: cell-based; set-up: percent GSPT1 degradation: dose or concentration left out as unconfirmed; settings: for percent GSPT1 degradation at 0.2 µM: KG-1 cells, compound concentration 200 nM, 4 hours
T1 construct: host or cells: KG-1 cells
T1 sequence (P15170 whole entry): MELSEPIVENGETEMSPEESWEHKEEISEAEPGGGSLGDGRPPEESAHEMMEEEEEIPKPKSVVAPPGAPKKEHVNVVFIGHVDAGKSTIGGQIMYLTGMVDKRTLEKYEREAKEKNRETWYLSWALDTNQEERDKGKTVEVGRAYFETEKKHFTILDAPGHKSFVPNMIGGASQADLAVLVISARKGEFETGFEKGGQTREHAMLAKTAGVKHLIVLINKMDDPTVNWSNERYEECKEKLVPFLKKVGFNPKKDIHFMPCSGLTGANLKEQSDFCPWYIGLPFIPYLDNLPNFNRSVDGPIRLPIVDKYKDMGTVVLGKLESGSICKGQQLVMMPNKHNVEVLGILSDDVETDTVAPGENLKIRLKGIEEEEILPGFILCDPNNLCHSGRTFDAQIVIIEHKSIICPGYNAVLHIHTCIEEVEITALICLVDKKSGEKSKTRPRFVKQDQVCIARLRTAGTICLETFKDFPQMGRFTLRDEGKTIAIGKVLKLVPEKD
T1 sequence (Q96SW2 whole entry): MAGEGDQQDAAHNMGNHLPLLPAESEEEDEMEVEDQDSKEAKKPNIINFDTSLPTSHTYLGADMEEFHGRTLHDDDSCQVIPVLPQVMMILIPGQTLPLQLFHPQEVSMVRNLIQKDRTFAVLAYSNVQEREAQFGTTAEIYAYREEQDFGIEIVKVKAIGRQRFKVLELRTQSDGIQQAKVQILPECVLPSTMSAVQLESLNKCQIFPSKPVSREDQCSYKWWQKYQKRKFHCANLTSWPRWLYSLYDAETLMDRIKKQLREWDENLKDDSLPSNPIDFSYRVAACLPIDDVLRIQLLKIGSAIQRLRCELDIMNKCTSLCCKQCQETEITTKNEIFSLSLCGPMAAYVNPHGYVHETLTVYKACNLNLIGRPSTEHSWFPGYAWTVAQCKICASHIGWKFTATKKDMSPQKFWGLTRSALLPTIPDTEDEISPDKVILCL
T1 sequence (Q16531 whole entry partner): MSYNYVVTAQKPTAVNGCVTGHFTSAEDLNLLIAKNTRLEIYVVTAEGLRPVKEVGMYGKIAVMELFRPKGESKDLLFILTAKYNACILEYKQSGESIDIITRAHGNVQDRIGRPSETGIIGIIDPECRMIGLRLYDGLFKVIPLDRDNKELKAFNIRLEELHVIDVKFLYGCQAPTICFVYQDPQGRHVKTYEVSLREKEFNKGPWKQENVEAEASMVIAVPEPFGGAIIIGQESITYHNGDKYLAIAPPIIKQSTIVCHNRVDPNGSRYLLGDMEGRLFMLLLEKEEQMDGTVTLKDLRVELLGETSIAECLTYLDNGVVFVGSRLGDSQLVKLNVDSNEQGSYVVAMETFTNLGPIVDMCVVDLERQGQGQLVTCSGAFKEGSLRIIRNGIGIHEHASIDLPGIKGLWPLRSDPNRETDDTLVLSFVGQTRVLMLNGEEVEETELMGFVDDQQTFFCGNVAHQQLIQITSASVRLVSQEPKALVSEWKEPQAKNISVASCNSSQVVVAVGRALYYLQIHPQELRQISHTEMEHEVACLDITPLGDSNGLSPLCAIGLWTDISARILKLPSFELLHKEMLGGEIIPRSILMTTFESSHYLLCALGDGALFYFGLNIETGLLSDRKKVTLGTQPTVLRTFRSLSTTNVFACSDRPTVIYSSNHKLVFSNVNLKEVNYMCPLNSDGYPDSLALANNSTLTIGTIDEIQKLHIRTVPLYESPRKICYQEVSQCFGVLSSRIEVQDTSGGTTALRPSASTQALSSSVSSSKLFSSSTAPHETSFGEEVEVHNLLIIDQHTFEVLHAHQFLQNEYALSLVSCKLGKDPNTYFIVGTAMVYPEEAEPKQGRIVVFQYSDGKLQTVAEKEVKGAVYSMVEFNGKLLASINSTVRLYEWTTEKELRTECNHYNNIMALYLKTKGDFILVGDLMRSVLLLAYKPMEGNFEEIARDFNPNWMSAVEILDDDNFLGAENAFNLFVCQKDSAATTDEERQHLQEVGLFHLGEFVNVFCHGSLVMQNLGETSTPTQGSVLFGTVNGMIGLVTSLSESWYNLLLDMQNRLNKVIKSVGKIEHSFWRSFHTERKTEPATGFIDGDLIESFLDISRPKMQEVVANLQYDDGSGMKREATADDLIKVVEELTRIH
Procedure: KG-1 cells (ATCC) were grown in an IMDM culture medium (containing 20% FBS). After centrifugation and counting, the cell concentration was adjusted. The cells were plated onto 6-well plates at 10^6 cells/well, with 1350 µL per well. 150 µL of DMSO and the test compounds of the present disclosure (compound concentration: 200 nM) were added. The plates were incubated in an incubator at 37 °C with 5% CO2 for 4 hours. The cells were centrifuged, and the culture medium was discarded. PBS was added to wash the cells and then discarded. Whole cell lysates were prepared using a protease inhibitor cocktail (100×, Fude Biological), a protein phosphatase inhibitor cocktail (100×, Fude Biological), SuperNuclease (Beyotime), and a high-intensity RIPA lysis buffer (Thermo Fisher) and placed on ice for 30 minutes. After centrifugation, the cell debris precipitates were discarded, and the whole cell lysate supernatants were collected and transferred to new centrifuge tubes. After a BCA protein assay, samples were prepared using a 5× loading buffer (Thermo Fisher). The samples were subjected to protein electrophoresis separation in a 4-20% precast gel (SDS-PAGE gel), transferred to a PVDF membrane, then blocked with 5% NFDM/TBST at room temperature for 1 hour, incubated overnight with primary antibodies at 4 °C, and incubated with a secondary antibody at room temperature for 2 hours the next day. Signals were detected using a MINICHEMITM imaging system.
Primary antibodies: • Anti-GSPT1: Abcam ab234433 • Anti-beta actin: Fude Biological FD0060
Secondary antibody: Anti-rabbit peroxidase-linked secondary antibody: Fude Biological FDG007
The degradation effects of the compounds on GSPT1 protein are shown in Table 1, where A represents a GSPT1 protein degradation percentage of no less than 80%, B represents a degradation percentage of less than 80% but no less than 50%, C represents a degradation percentage of less than 50% but no less than 25%, and D represents a degradation percentage of less than 25%. Table 1. The degradation of GSPT1 protein by compounds

KG-1 cells = experiment: Antiproliferative activity against KG-1 cells (CCK8); assay type: cell-based; settings: Homo sapiens, 72 hours
Procedure: KG-1 cells in the logarithmic growth phase were diluted in a culture medium (RPMI + 10% FBS) and plated onto 96-well plates at 5000 cells/well, and the plates were incubated in an incubator at 37 °C with 5% CO2 for 24 hours. 10 mM stock solutions of the test compounds of the present disclosure in DMSO were prepared and diluted with the culture medium to set 9 concentration gradients. Three replicate wells were set for each concentration. After compound addition, the plates were incubated in an incubator at 37 °C with 5% CO2 for 72 hours. The cell proliferation was assessed using the CCK8 method. The cell growth inhibition IC50 values of the compounds were determined using an enzyme labeling method. The IC50 values were calculated using GraphPad Prism 7 software.
The antiproliferative activity of the compounds against KG-1 cells is shown in Table 2, where A represents IC50 < 1 nM, B represents 1 ≤ IC50 < 10 nM, C represents 10 nM ≤ IC50 < 100 nM, D represents 100 nM ≤ IC50 < 1000 nM, and E represents IC50 ≥ 1000 nM. Table 2. The antiproliferative activity of compounds against KG-1 cells

Structure (SMILES) | percent GSPT1 degradation at 0.2 µM (GSPT1 protein) | IC50 (KG-1 cells) | percent GSPT1 degradation (GSPT1 protein; KG-1, 4 h, read-out: GSPT1 degradation)
Cc1cc(F)cc2c1OCC(C(=O)NCc1ccc3c(c1)CN(C1CCC(=O)NC1=O)C3=O)=C2 (centres unmarked) [Compound A-31, N-((2-(2,6-Dioxopiperidin-3-yl)-1-oxoisoindolin-5-yl)methyl)-6-fluoro-8-methyl-2H-chromene-3-carboxamide] | > 80% | 1 to 10 nM | 
CC(=O)Nc1ccc2c(c1)C=C(C(=O)NCc1ccc3c(c1)CN(C1CCC(=O)NC1=O)C3=O)CO2 (centres unmarked) [Compound A-23, N-((2-(2,6-Dioxopiperidin-3-yl)-1-oxoisoindolin-5-yl)methyl)-6-(acetamido)-2H-chromene-3-carboxamide] | 25 to 50% | ≥ 1000 nM | 
Cc1cc2c(cc1C)OCC(C(=O)NCc1ccc3c(c1)CN(C1CCC(=O)NC1=O)C3=O)=C2 (centres unmarked) [Compound A-37, N-((2-(2,6-Dioxopiperidin-3-yl)-1-oxoisoindolin-5-yl)methyl)-6,7-dimethyl-2H-chromene-3-carboxamide] | > 80% | 10 to 100 nM | 
O=C1CCC(N2Cc3cc(CNC(=O)C4=Cc5c(F)cc(F)cc5OC4)ccc3C2=O)C(=O)N1 (centres unmarked) [Compound A-34, N-((2-(2,6-Dioxopiperidin-3-yl)-1-oxoisoindolin-5-yl)methyl)-5,7-difluoro-2H-chromene-3-carboxamide] | > 80% | 1 to 10 nM | 
C=Cc1ccc2c(c1)C=C(C(=O)NCc1ccc3c(c1)CN(C1CCC(=O)NC1=O)C3=O)CO2 (centres unmarked) [Compound A-14, N-((2-(2,6-Dioxopiperidin-3-yl)-1-oxoisoindolin-5-yl)methyl)-6-vinyl-2H-chromene-3-carboxamide] | 50 to 80% | 10 to 100 nM | 
CC(C)(C)c1ccc2c(c1)C=C(C(=O)NCc1ccc3c(c1)CN(C1CCC(=O)NC1=O)C3=O)CO2 (centres unmarked) [Compound A-16, N-((2-(2,6-Dioxopiperidin-3-yl)-1-oxoisoindolin-5-yl)methyl)-6-tert-butyl-2H-chromene-3-carboxamide] | 50 to 80% | 10 to 100 nM | 
O=C1CCC(N2Cc3cc(CNC(=O)C4=Cc5cc(F)c(F)cc5OC4)ccc3C2=O)C(=O)N1 (centres unmarked) [Compound A-35, N-((2-(2,6-Dioxopiperidin-3-yl)-1-oxoisoindolin-5-yl)methyl)-6,7-difluoro-2H-chromene-3-carboxamide] |  | 10 to 100 nM | > 80%
Cc1ccc(C)c2c1C=C(C(=O)NCc1ccc3c(c1)CN(C1CCC(=O)NC1=O)C3=O)CO2 (centres unmarked) [Compound A-38, N-((2-(2,6-Dioxopiperidin-3-yl)-1-oxoisoindolin-5-yl)methyl)-5,8-dimethyl-2H-chromene-3-carboxamide] | > 80% | 10 to 100 nM | 
Nc1ccc2c(c1)C=C(C(=O)NCc1ccc3c(c1)CN(C1CCC(=O)NC1=O)C3=O)CO2 (centres unmarked) [Compound A-12, N-((2-(2,6-Dioxopiperidin-3-yl)-1-oxoisoindolin-5-yl)methyl)-6-amino-2H-chromene-3-carboxamide] | > 80% | 10 to 100 nM | 
O=C1CCC(N2Cc3cc(CNC(=O)C4=Cc5cc(-c6ccccc6)ccc5OC4)ccc3C2=O)C(=O)N1 (centres unmarked) [Compound A-17, N-((2-(2,6-Dioxopiperidin-3-yl)-1-oxoisoindolin-5-yl)methyl)-6-phenyl-2H-chromene-3-carboxamide] | 50 to 80% | 100 to 1000 nM | 
O=C1CCC(N2Cc3ccc(CNC(=O)C4=Cc5cc(OC(F)(F)F)ccc5OC4)cc3C2=O)C(=O)N1 (centres unmarked) [Compound A-40, N-((2-(2,6-Dioxopiperidin-3-yl)-3-oxoisoindolin-5-yl)methyl)-6-(trifluoromethoxy)-2H-chromene-3-carboxamide] | 50 to 80% | 10 to 100 nM | 
O=C1CCC(N2Cc3cc(CNC(=O)C4=Cc5ccc(F)c(F)c5OC4)ccc3C2=O)C(=O)N1 (centres unmarked) [Compound A-32, N-((2-(2,6-Dioxopiperidin-3-yl)-1-oxoisoindolin-5-yl)methyl)-7,8-difluoro-2H-chromene-3-carboxamide] | > 80% | 1 to 10 nM | 
Cc1ccc2c(c1)C=C(C(=O)NCc1ccc3c(c1)CN(C1CCC(=O)NC1=O)C3=O)CO2 (centres unmarked) [Compound A-7, N-((2-(2,6-Dioxopiperidin-3-yl)-1-oxoisoindolin-5-yl)methyl)-6-methyl-2H-chromene-3-carboxamide] | > 80% | 1 to 10 nM | 
O=C1CCC(N2Cc3cc(CNC(=O)C4=Cc5cc(NC(=O)C6CC6)ccc5OC4)ccc3C2=O)C(=O)N1 (centres unmarked) [Compound A-26, N-((2-(2,6-Dioxopiperidin-3-yl)-1-oxoisoindolin-5-yl)methyl)-6-(cyclopropanecarboxamido)-2H-chromene-3-carboxamide] | < 25% | 100 to 1000 nM | 
O=C1CCC(N2Cc3c(CNC(=O)C4=Cc5cc(OC(F)(F)F)ccc5OC4)cccc3C2=O)C(=O)N1 (centres unmarked) [Compound A-41, N-((2-(2,6-Dioxopiperidin-3-yl)-1-oxoisoindolin-4-yl)methyl)-6-(trifluoromethoxy)-2H-chromene-3-carboxamide] | 50 to 80% | 10 to 100 nM | 
C=CC(=O)Nc1ccc2c(c1)C=C(C(=O)NCc1ccc3c(c1)CN(C1CCC(=O)NC1=O)C3=O)CO2 (centres unmarked) [Compound A-24, N-((2-(2,6-Dioxopiperidin-3-yl)-1-oxoisoindolin-5-yl)methyl)-6-(acrylamido)-2H-chromene-3-carboxamide] | 25 to 50% | ≥ 1000 nM | 
O=C1CCC(N2Cc3cc(CNC(=O)C4=Cc5cc(NC(=O)C6CCC6)ccc5OC4)ccc3C2=O)C(=O)N1 (centres unmarked) [Compound A-27, N-((2-(2,6-Dioxopiperidin-3-yl)-1-oxoisoindolin-5-yl)methyl)-6-(cyclobutanecarboxamido)-2H-chromene-3-carboxamide] | < 25% | 100 to 1000 nM | 
O=C1CCC(N2Cc3cc(CNC(=O)C4=Cc5ccc(F)cc5OC4)ccc3C2=O)C(=O)N1 (centres unmarked) [Compound A-4, N-((2-(2,6-Dioxopiperidin-3-yl)-1-oxoisoindolin-5-yl)methyl)-7-fluoro-2H-chromene-3-carboxamide] | 50 to 80% | 10 to 100 nM | 
O=C1CCC(N2Cc3cccc(CNC(=O)C4=Cc5cc(OC(F)(F)F)ccc5OC4)c3C2=O)C(=O)N1 (centres unmarked) [Compound A-39, N-((2-(2,6-Dioxopiperidin-3-yl)-3-oxoisoindolin-4-yl)methyl)-6-(trifluoromethoxy)-2H-chromene-3-carboxamide] | 50 to 80% | 10 to 100 nM | 
O=C1CCC(N2Cc3cc(CNC(=O)C4=Cc5c(F)cccc5OC4)ccc3C2=O)C(=O)N1 (centres unmarked) [Compound A-2, N-((2-(2,6-Dioxopiperidin-3-yl)-1-oxoisoindolin-5-yl)methyl)-5-fluoro-2H-chromene-3-carboxamide] | > 80% | 10 to 100 nM | 
O=C1CCC(N2Cc3cc(CNC(=O)C4=Cc5cccc(C(F)(F)F)c5OC4)ccc3C2=O)C(=O)N1 (centres unmarked) [Compound A-18, N-((2-(2,6-Dioxopiperidin-3-yl)-1-oxoisoindolin-5-yl)methyl)-8-trifluoromethyl-2H-chromene-3-carboxamide] | > 80% | < 1 nM | 
COc1cccc2c1C=C(C(=O)NCc1ccc3c(c1)CN(C1CCC(=O)NC1=O)C3=O)CO2 (centres unmarked) [Compound A-9, N-((2-(2,6-Dioxopiperidin-3-yl)-1-oxoisoindolin-5-yl)methyl)-5-methoxy-2H-chromene-3-carboxamide] | > 80% | 1 to 10 nM | 
